Experimental findings from patent publication EP4755885A1 (Shanghai Hansoh Biomedical Co., Ltd., priority 2023, dated 2025) are described below.

The nature of series [1]: Pharmacokinetic evaluation in rats, oral administration. More on the design: species or system SD rats. Conditions: rat, in vivo, p.o. 5 mg/kg, plasma. The method, then: SD rats were used as test animals to study the pharmacokinetic behavior of the following example compounds, administered orally at a dose of 5 mg/kg, in the plasma of the rats. SD rats, 3 per group, male. […] An example compound was weighed and added to a 4 mL glass bottle, and the solution was added. […] Sonication was performed for 10 min to obtain a colorless clear solution having a concentration of 0.5 mg/mL. […] The blood samples were placed in EDTA-K2 tubes and centrifuged at 6000 rpm at 4°C for 6 min to separate plasma, which was stored at -80°C. […] • Liquid phase conditions: Shimadzu LC-20AD pump • Mass spectrometry conditions: AB Sciex API 4000 mass spectrometer • Chromatographic column: phenomenex Gemiu 5 um C18 50 × 4.6 mm • Mobile phase: Solution A was 0.1% formic acid aqueous solution, and Solution B was methanol • Flow rate: 1.0 mL/min • Elution time: 0-4.0 min, the eluent was as follows: […] The results of the rat pharmacokinetic experiment are shown in the table below: Table 5: Pharmacokinetic parameters of oral administration of the compound of the present invention in rats

Series [2] in a line: Pharmacokinetic evaluation in Macaca fascicularis monkeys, intravenous administration. As to conditions: cynomolgus monkey, I.V. 0.2 mg/kg, plasma. The series is classed as in vivo. The method, then:
Macaca fascicularis monkeys were used as test animals to study the pharmacokinetic behavior of the compound of the present invention, administered intravenously at a dose of 0.2 mg/kg, in Macaca fascicularis monkeys (plasma).
Macaca fascicularis monkeys, 3 per group, male, Guangxi Xiongsen, Animal Production License No.: SCXK (Gui) 2021-0004).
Preparation of drug for intravenous administration: 5%DMSO+10%Solutol HS15+85%PBS
The compound of the present invention was weighed. 5% DMSO was first added according to the proportion in the total volume, followed by vortexing and sonication for 2 min to achieve complete dissolution. Then 10% Solutol HS15 was added, followed by vortexing and sonication for 2 min to achieve complete dissolution. Finally, 85% PBS was added, followed by vortexing and sonication for 5 min and filtering through a 0.22 um filter membrane to obtain a colorless, transparent, clear solution having a concentration of 0.1 mg/mL.
Three Macaca fascicularis monkeys, male, respectively administered I.V. after fasting overnight, at a dose of 0.2 mg/kg and in an administration volume of 2 mL/kg.
0.5 mL of blood was collected from the forelimb vein of the Macaca fascicularis monkeys before administration and at 0.083, 0.25, 0.5, 1, 2, 4, 8, and 24 h after administration. The blood samples were placed in EDTA-K2 tubes and centrifuged at 6000 rpm at 4°C for 6 min to separate plasma, which was stored at -80°C.
40 µL of a plasma sample was added with 160 µL of acetonitrile for precipitation, and after mixing, the mixture was centrifuged at 3500 × g for 5 to 20 min.
100 µL of the supernatant solution after treatment was taken for LC/MS/MS analysis of the concentration of the test compound.
Liquid phase condition: Shimadzu LC-20AD pump Mass spectrometry condition: AB Sciex API 4000 mass spectrometer Chromatographic column: phenomenex Gemiu 5 um C18 50 × 4.6 mm Mobile phase: Solution A was 0.1% formic acid aqueous solution, and Solution B was acetonitrile Flow rate: 0.8 mL/min Elution time: 0-4.0 min, the eluent was as follows:
Main pharmacokinetic parameters were calculated using WinNonlin 8.2. The results of the Macaca fascicularis monkey pharmacokinetic experiment are shown in Table 8 below: Table 8: Pharmacokinetic parameters of injection administration of the compound of the present invention in Macaca fascicularis monkeys

As usually defined, the AUC(0-inf) is total exposure, with the tail of the curve extrapolated. Lower therefore signals less exposure. As a reminder, the AUC(0-t) is exposure summed from dosing to a finite time, without extrapolation to infinity. Low readings indicate less exposure, high ones more exposure. The term Cmax denotes the maximum level reached in the sampled fluid or tissue. As a reminder, the Tmax is the time at which the peak concentration occurs. What is called half-life is the time needed for the level to fall by half in the phase considered. Higher therefore signals slow decline. Turning to `[2H]C([2H])([2H])n1nc2c3c(c(-n4ccn(-c5c6c(nn5-c5cc(C)c(F)c(C)c5)CCN(C(=O)c5cc7cc([C@H]8CCOC(C)(C)C8)ccc7n5[C@@]5(c7noc(=O)[nH]7)C[C@@H]5C)[C@H]6C)c4=O)ccc31)OCCC2` [Example 282, 3-((1S,2S)-1-(5-((S)-2,2-dimethyltetrahydro-2H-pyran-4-yl)-2-((S)-2-(4-fluoro-3,5-dimethylphenyl)-4-methyl-3-(3-(2-(methyl-d3)-2,7,8,9-tetrahydrooxaheptano[4,3,2-cd]indazol-5-yl)-2-carbonyl-2,3-dihydro-1H-imidazol-1-yl)-4,5,6,7-tetrahydro-2H-pyrazolo[4,3-c]pyridine-5-carbonyl)-1H-indol-1-yl)-2-methylcyclopropyl)-1,2,4-oxadiazol-5(4H)-one], in series [1], the AUC(0-inf) came out at 13900 ng·h/mL, the AUC(0-t) at 24 h worked out at 12200 ng·h/mL, the Cmax turned out to be 971 ng/mL and the Tmax is 6 h. The same molecule showed a half-life in series [1] of 7.3 h. In addition, in series [1] (read-out: MRT 0-∞), the MRT inf amounted to 12 h. In series [2], this molecule gave an area under the curve AUC(0-inf) of 1930 ng·h/mL, an AUC(0-t) of 1680 ng·h/mL, a C0 of 1080 ng/mL and a half-life of 9.8 h. In addition, in series [2] (read-out: MRT 0-∞), the MRT inf is 10.3 h.
